Results published in publication PMC4126848 (Epilepsia, 2014).
Values joined by “and” are separate entries in the source; they are usually repeats but may differ in a detail not shown here. Equal values may be shown once. Read-outs that look alike come from different tables or passages of the source.

Columns and labels:
[1] = Plasma and brain concentrations and pharmacokinetics in mice; conditions: for concentration at 30 min: male, Scn2a^Q54, mouse, intraperitoneal, 40 mg/kg
Scn2a^Q54 mice [2] = test: Anticonvulsant activity: behavioral seizure frequency in Scn2a^Q54 mice; type: in vivo, mouse; conditions: for reduction in seizure frequency: Scn2a^Q54 mice
[3] = mouse, in vivo
[4] = tested on: hippocampal pyramidal neurons isolated from Scn2a^Q54 mice; type: cell-based, mouse; conditions: 1 µM; membrane potential clamped to −80 mV
[5] = tested on: hippocampal pyramidal neurons isolated from Scn2a^Q54 mice; type: cell-based, mouse; conditions: 1 µM
Scn2a^Q54 mice [6] = test: Survival analysis of Scn2a^Q54 mice; type: in vivo, mouse; conditions: GS967 chow 1.5 mg/kg/d from postnatal day 21; control 20%
Scn2a^Q54 mice [7] = test: Tolerability observations in mice; type: in vivo, mouse; conditions: phenytoin 30 mg/kg i.p.; GS967 in chow
Scn2a^Q54 mice [8] = test: Cresyl Violet staining for hilar neuron loss in the dentate gyrus; type: in vivo, mouse; conditions: GS967 1.5 mg/kg/d from P21-P60; female mice
[9] = tested on: cardiac ion channels and several other molecular targets (more than 600 studied targets); conditions: 1 µM; cited from earlier work
C57BL/6J male mice = test: Maximal electroshock-induced seizures; type: in vivo, mouse; conditions: oral gavage two hours prior to testing; probit analysis

| Compound | concentration at 30 min ([1]; plasma) | concentration at 30 min ([1]; whole brain) | half-life ([1]; mouse, plasma) | reduction in seizure frequency (Scn2a^Q54 mice [2]; ranolazine 40 mg/kg i.p.) | brain penetration [3] | reduction of spontaneous action potential firing frequency [4] | persistent current as % of peak current amplitude ([5]; control 1.2 ± 0.4%) | peak current density ([5]; not significantly different from control) | mice alive at 12 weeks (Scn2a^Q54 mice [6]) | sedation (Scn2a^Q54 mice [7]) | [Plasma] ([1]; GS967 1.5 mg/kg/day orally in chow, immediately after post-treatment period) | brain penetration ([1]; mice) | rate of elimination ([1]; mouse, in vivo) | reduction in seizure frequency (Scn2a^Q54 mice [2]; GS967 0.375 mg/kg/d orally in chow) | reduction in seizure frequency (Scn2a^Q54 mice [2]; GS967 1.5 mg/kg/d orally in chow, two days of treatment) | % Change in Seizure Frequency (Scn2a^Q54 mice [2]; GS967 1.5 mg/kg/day orally in chow, male Scn2a^Q54 mice) | hilar neuron loss (Cresyl Violet, qualitative) (Scn2a^Q54 mice [8]) | cross reactivity with cardiac ion channels and other molecular targets [9] | ED50 for protection against MES-induced tonic hindlimb extension (C57BL/6J male mice) |
| --- | --- | --- | --- | --- | --- | --- | --- | --- | --- | --- | --- | --- | --- | --- | --- | --- | --- | --- | --- |
| COc1ccccc1OCC(O)CN1CCN(CC(=O)Nc2c(C)cccc2C)CC1 (stereo not drawn) [Ranolazine, reference compound] | 19.3 ± 0.8 µM | 4.9 ± 0.1 µM | ~15 min | ~ 50% and 48% | low brain penetration | – | – | – | – | – | – | – | – | – | – | – | – | – | – |
| FC(F)(F)Oc1ccc(-c2ccc3nnc(C(F)(F)F)n3c2)cc1 [GS967] | – | – | – | – | – | 98.8 ± 0.1% | 0.1 ± 0.1% | 172.3 ± 46.2 pA/pF | 90% | no sedation was observed | 0.6 ± 0.1 µM | effectively cross the blood-brain barrier | slower rate of elimination than ranolazine | 50% | greater than 90% | −92 ± 4% | no overt hilar neuron loss | no cross reactivity | 0.1 mg/kg |
| O=C1NC(=O)C(c2ccccc2)(c2ccccc2)N1 [Phenytoin, reference compound] | – | – | – | – | – | 36.7 ± 10.1% | – | – | – | exhibited sedation characterized by lack of ambulation | – | – | – | – | – | – | – | – | – |
